The text below walks through data of US10052330B2, “Substituted pyrido[3,4-b]pyrazines as Syk inhibitors” (HUTCHISON MEDIPHARMA LIMITED, priority 2011, dated 2018).

One may read the IC50 as the concentration at which inhibition is half-maximal.

The target in the assay is Syk kinase (Homo sapiens, UniProt P43405). Put plainly: Syk kinase enzymatic assay (Kit-Tyr 2 Peptide). It is filed as biochemical. Particulars: 8 concentrations, 1 μM down to 0.0003 μM; upper bound of each range is 'less than'; read-out: IC50: Enzymatic Activity (Syk kinase).
`NS(=O)(=O)c1ccc(-c2cc3nccnc3c(NCC3CCCNC3)n2)cc1` (stereo not shown) [Compound 43]: the IC50 was in the range of 100 to 1000 nM.
Regarding `CS(=O)(=O)c1ccc(-c2cc3nccnc3c(NC[C@@H]3CNCCO3)n2)cc1` [Compound 211], the IC50 was in the range of 100 to 1000 nM.
As for `CC(Nc1nc(-c2ccc(N3CCOCC3)nc2)cc2nccnc12)C1CNCCO1` (stereo not shown) [Compound 277], the figure is 100 to 1000 nM.
Take `NC(=O)N1CCC(CNc2nc(-c3ccc(N4CCOCC4)cc3)cc3nccnc23)CC1` [Compound 350]: the IC50 lay in the range of 100 to 1000 nM.
As for `c1cnc2c(N3CCC4CNCC43)nc(-c3ccc(N4CCOCC4)cc3)cc2n1` (stereo not shown) [Compound 8], the figure is 100 to 1000 nM; as for `COc1cc(-c2cc3nccnc3c(NCCCN)n2)ccc1OCCN1CCOCC1` [Compound 198], 100 to 1000 nM; as for `Fc1cc(-c2cc3nccnc3c(NCC3CNCC(F)(F)C3)n2)ccc1N1CCOCC1` (stereo not shown) [Compound 202], 100 to 1000 nM.
Turning to `CNc1ccc(-c2cc3nccnc3c(NC[C@@H]3CN(C(=O)C(F)F)CCO3)n2)cc1F` [Compound 457], the IC50 lay within 100 to 1000 nM.
The same measure for `CS(=O)(=O)Nc1ccc(-c2cc3nccnc3c(NCC3CCCNC3)n2)cc1` (stereo not shown) [Compound 53]: 1 to 100 nM; for `CN1CCN(c2ccc(-c3cc4nccnc4c(NCC4CNCCS4(=O)=O)n3)cc2)CC1` (stereo not shown) [Compound 484]: 100 to 1000 nM; for `c1cnc2c(NCC3CCCNC3)nc(-c3ccc(N4CCNCC4)cc3)cc2n1` (stereo not shown) [Compound 61]: 1 to 100 nM.
Turning to `CN(CCO)c1ccc(-c2cc3nccnc3c(NC[C@@H]3CNCCO3)n2)cc1` [Compound 472, (S)-2-(methyl(4-(5-(morpholin-2-ylmethylamino)pyrido[4,3-b]pyrazin-7-yl)phenyl)amino)ethanol], the IC50 lay in the range of 100 to 1000 nM.
Take `O=C1CN(c2nc(-c3ccc(N4CCOCC4)cc3)cc3nccnc23)CCN1` [Compound 360]: the IC50 was 100 to 1000 nM.
`c1cnc2c(NC[C@@H]3CNCCO3)nc(-c3ccc4c(c3)OCCO4)cc2n1` [Compound 244]: the IC50 fell in the range of 100 to 1000 nM.
Consider `O=S1(=O)CCNCC1CNc1nc(-c2ccc(N3CCOCC3)c(F)c2)cc2nccnc12` (stereo not shown) [Compound 483], for which the IC50 was in the range of 100 to 1000 nM.
Consider `NC(=O)CCC(=O)N1CCN(c2ccc(-c3cc4nccnc4c(NCC4CNCCO4)n3)cc2)CC1` (stereo not shown) [Compound 422], for which the IC50 is 1 to 100 nM.
The same measure for `COc1ccc(-c2cc3nccnc3c(NC[C@@H]3CN(C(=O)C(F)F)CCO3)n2)cc1OC` [Compound 454]: 100 to 1000 nM.
Take `CC(=O)N1CCN(c2ccc(-c3cc4nccnc4c(NC[C@@H]4CN(S(C)(=O)=O)CCO4)n3)cc2)CC1` [Compound 491]: the IC50 was in the range of 100 to 1000 nM.
The same measure for `CS(=O)(=O)N1CCN(c2ccc(-c3cc4nccnc4c(NC[C@@H]4CN(S(C)(=O)=O)CCO4)n3)cc2)CC1` [Compound 492]: 100 to 1000 nM; for `c1cnc2c(NC[C@@H]3CNCCO3)nc(-c3ccc(OC4CCOCC4)nc3)cc2n1` [Compound 271]: 100 to 1000 nM; for `NC1CCN(c2nc(-c3ccc(N4CCOCC4)cc3)cc3nccnc23)CC1` [Compound 7]: 100 to 1000 nM.
With `CS(=O)(=O)CCOc1ccc(-c2cc3nccnc3c(NC[C@@H]3CNCCO3)n2)cc1` [Compound 478, (S)-7-(4-(2-(methylsulfonyl)ethoxy)phenyl)-N-(morpholin-2-ylmethyl)pyrido[4,3-b]pyrazin-5-amine], the IC50 lay within 100 to 1000 nM.
For the compound `O=C(CC(F)(F)F)N1CCO[C@H](CNc2nc(-c3ccc(N4CCOCC4)cc3)cc3nccnc23)C1` [Compound 343], the IC50 fell in the range of 100 to 1000 nM.
On to `FC1(F)CNCC(CNc2nc(-c3ccc(N4CCOCC4)nc3)cc3nccnc23)C1` (stereo not shown) [Compound 206], for which the IC50 lay in the range of 100 to 1000 nM.
As to `c1cnc2c(N3CC4CNCC4C3)nc(-c3ccc(N4CCOCC4)cc3)cc2n1` (stereo not shown) [Compound 6], the IC50 is 100 to 1000 nM.
Turning to `NC(=O)N1CCO[C@H](CNc2nc(-c3ccc(N4CCOCC4)c(F)c3)cc3nccnc23)C1` [Compound 348], the IC50 fell in the range of 100 to 1000 nM.
As for `CN(C)S(=O)(=O)c1ccc(-c2cc3nccnc3c(NCC3CNCCO3)n2)cc1` (stereo not shown) [Compound 227], the IC50 lay within 100 to 1000 nM.
Turning to `CC(C)(O)COc1ccc(-c2cc3nccnc3c(NC[C@@H]3CNCCO3)n2)cc1` [Compound 268], the IC50 fell in the range of 100 to 1000 nM.
`CCNC(=O)c1ccc(-c2cc3nccnc3c(NCC3CCCNC3)n2)cc1` (stereo not shown) [Compound 66]: the concentration for half-maximal inhibition (IC50) lay within 100 to 1000 nM.
Turning to `c1cnc2c(NC[C@@H]3CNCCO3)nc(-c3ccc(OCCN4CCOCC4)nc3)cc2n1` [Compound 263], the IC50 fell in the range of 100 to 1000 nM.
As to `CN1CC2CN(c3ccc(-c4cc5nccnc5c(NC[C@@H]5CNCCO5)n4)cn3)CC2C1` (stereo partly shown) [Compound 256], the IC50 is 100 to 1000 nM.
`COc1ccc(-c2cc3nccnc3c(NCC3CNCCC3(F)F)n2)cn1` (stereo not shown) [Compound 299]: the IC50 was in the range of 100 to 1000 nM.
For the compound `CNC(=O)COc1cccc(-c2cc3nccnc3c(NCC3CCCNC3)n2)c1` (stereo not shown) [Compound 49], the IC50 is 100 to 1000 nM.
`CS(=O)(=O)N1CCC(c2ccc(-c3cc4nccnc4c(NCC(O)CN)n3)cc2)CC1` (stereo not shown) [Compound 509]: the IC50 fell in the range of 100 to 1000 nM.
For the compound `CN1CCN(c2ccc(-c3cc4nccnc4c(NCC4(F)CCCNC4)n3)cc2)CC1` (single isomer, unassigned) [Compound 380], the IC50 lay in the range of 1 to 100 nM.
`CN(C)Cc1ccc(-c2cc3nccnc3c(NC[C@@H]3CNCCO3)n2)cc1` [Compound 212]: the IC50 lay within 100 to 1000 nM.
For `F[C@]1(CNc2nc(-c3ccc(N4CCOCC4)nc3)cc3nccnc23)CCCNC1` [Compound 379, (R)—N-((3-fluoropiperidin-3-yl)methyl)-7-(6-morpholinopyridin-3-yl)pyrido[4,3-b]pyrazin-5-amine], the IC50 was 100 to 1000 nM.
For the compound `OC1CCN(c2ccc(-c3cc4nccnc4c(NC[C@@H]4CNCCO4)n3)cn2)C1` (stereo partly shown) [Compound 257], the IC50 lay within 100 to 1000 nM.
Consider `Cn1cc(-c2cc3nccnc3c(NC[C@@H]3CNCCO3)n2)cn1` [Compound 210], for which the IC50 lay in the range of 100 to 1000 nM.
The same measure for `CC(CO)Nc1nc(-c2ccc(N3CCOCC3)cc2)cc2nccnc12` (stereo not shown) [Compound 358]: 100 to 1000 nM; for `Cn1cc(-c2ccc(-c3cc4nccnc4c(NC[C@@H]4CNCCO4)n3)cc2)cn1` [Compound 249]: 100 to 1000 nM; for `c1cn(-c2ccc(-c3cc4nccnc4c(NC[C@@H]4CNCCO4)n3)cc2)cn1` [Compound 248]: 100 to 1000 nM.
Regarding `O=C(C(F)F)N1CCC(F)(F)C(CNc2nc(-c3cnn(C4CCOCC4)c3)cc3nccnc23)C1` (stereo not shown) [Compound 325], the IC50 is 100 to 1000 nM.
Consider `CN(C)CCOc1ccc(-c2cc3nccnc3c(NCC3CCCNC3)n2)cc1` (stereo not shown) [Compound 90], for which the IC50 lay in the range of 1 to 100 nM.
`c1cc(-c2cc3nccnc3c(NCC3CCCNC3)n2)cc(N2CCOCC2)c1` (stereo not shown) [Compound 14]: the IC50 was 100 to 1000 nM.
As for `CNS(=O)(=O)c1ccc(-c2cc3nccnc3c(NC[C@@H]3CNCCO3)n2)cc1` [Compound 284], the figure is 100 to 1000 nM.
Turning to `O=S(=O)(C1CC1)N1CCO[C@H](CNc2nc(-c3ccc(N4CCOCC4)cc3)cc3nccnc23)C1` [Compound 344], the IC50 was in the range of 100 to 1000 nM.
On to `CC(=O)N1CCO[C@H](CNc2nc(-c3ccc(N4CCOCC4)cc3)cc3nccnc23)C1` [Compound 326], for which the IC50 was 100 to 1000 nM.
In the case of `c1cnc2c(NC[C@@H]3CNCCO3)nc(-c3ccc(OCC4CCOCC4)nc3)cc2n1` [Compound 258], the IC50 lay in the range of 100 to 1000 nM.
As for `CCN(CC)c1ccc(-c2cc3nccnc3c(NC[C@@H]3CN(C(=O)C(F)F)CCO3)n2)cc1` [Compound 471], the figure is 100 to 1000 nM; as for `COc1ccc(-c2cc3nccnc3c(NCCCN)n2)cc1OC` [Compound 191], 100 to 1000 nM.
As to `c1cnc2c(NCC3CCCNC3)nc(-c3ccoc3)cc2n1` (stereo not shown) [Compound 31], the IC50 was 100 to 1000 nM.
`NC(=O)N1CCC(F)(F)C(CNc2nc(-c3cnn(C4CCOCC4)c3)cc3nccnc23)C1` (stereo not shown) [Compound 355]: the IC50 was in the range of 100 to 1000 nM.
The same measure for `CCn1cc(-c2cc3nccnc3c(NC[C@@H]3CNCCO3)n2)cn1` [Compound 209]: 100 to 1000 nM.
As for `Cc1cc(-c2cc3nccnc3c(NCC3CNCC(F)(F)C3)n2)ccc1N1CCOCC1` (stereo not shown) [Compound 201], the figure is 100 to 1000 nM.
Consider `Fc1ccc(-c2cc3nccnc3c(NCC3CCCNC3)n2)cc1Cl` (stereo not shown) [Compound 20], for which the half-maximal inhibitory concentration (IC50) was in the range of 100 to 1000 nM.
With `Fc1cc(-c2cc3nccnc3c(NC[C@H]3CNCCC3(F)F)n2)ccc1N1CCOCC1` [Compound 369, (R)—N-((4,4-difluoropiperidin-3-yl)methyl)-7-(3-fluoro-4-morpholinophenyl)pyrido[4,3-b]pyrazin-5-amine], the IC50 was in the range of 100 to 1000 nM.
Consider `CS(=O)(=O)N1CCC(n2cc(-c3cc4nccnc4c(NC[C@@H]4CNCCO4)n3)cn2)CC1` [Compound 431], for which the IC50 is 1 to 100 nM.
`Fc1ccc(-c2cc3nccnc3c(NC[C@@H]3CNCCO3)n2)cc1` [Compound 245]: the half-maximal inhibitory concentration (IC50) is 100 to 1000 nM.
With `C[C@@H]1CN(c2ccc(-c3cc4nccnc4c(NC[C@@H]4CNCCO4)n3)cn2)C[C@H](C)O1` [Compound 246], the IC50 lay in the range of 100 to 1000 nM.
`CNC(=O)N1CCO[C@H](CNc2nc(-c3ccc(N4CCOCC4)cc3)cc3nccnc23)C1` [Compound 339]: the IC50 lay within 100 to 1000 nM.
The same measure for `COc1cc(-c2cc3nccnc3c(NCC3CCCNC3)n2)cc(OC)c1OC` (stereo not shown) [Compound 11]: 100 to 1000 nM; for `CC(C)(F)C(=O)N1CCO[C@H](CNc2nc(-c3ccc(N4CCOCC4)cc3)cc3nccnc23)C1` [Compound 341]: 100 to 1000 nM.
As to `CS(=O)(=O)N1CCC(c2ccc(-c3cc4nccnc4c(NC[C@@H]4CN(O)CCO4)n3)cc2)CC1` [Compound 496, (R)-2-((7-(4-(1-(methylsulfonyl)piperidin-4-yl)phenyl)pyrido[4,3-b]pyrazin-5-ylamino)methyl)morpholin-4-ol], the IC50 was in the range of 100 to 1000 nM.
As for `NC(=O)[C@H]1CC[C@@H](Nc2nc(-c3ccc(N4CCOCC4)cc3)cc3nccnc23)CC1` [Compound 363], the figure is 100 to 1000 nM.
The same measure for `COCCn1cc(-c2cc3nccnc3c(NCC3(F)CCCNC3)n2)cn1` (stereo not shown) [Compound 288]: 100 to 1000 nM; for `O=C(O)c1ccccc1Nc1nc(-c2ccc(N3CCOCC3)cc2)cc2nccnc12` [Compound 361]: 100 to 1000 nM.
